# Laboratory results from patent US7273848B2, “Apolipoprotein A-I agonists and their use to treat dyslipidemic disorders” (priority 1997, dated 2007).
# Read-outs that look alike come from different tables or passages of the source. Non-standard residues stand in square brackets, D forms with d. Residues, ends and D or L forms follow the SMILES beside them. 1Nal = N[C@@H](Cc1cccc2ccccc12)C(=O)O; Aib = CC(C)(N)C(=O)O
# What was measured:
# [1] = Circular dichroism helicity determination; assay type: physicochemical; conditions: for He (%) TFE: 5 μM peptide, 90% vol TFE; for He (%) TFE / He (%) SUVs: 37° C.; for He (%) free: unbound peptide 5 μM in 5 mM phosphate buffer, pH 7.4, 37° C.; for He (%) SUVs: peptide-SUV complexes (20:1 EPC:Chol., Ri=30 and Ri=50)
# Experimental: Far UV circular dichroism spectra were recorded between 190 and 260 nm (in 0.5 nm or 0.2 nm increments) with a AVIV62DS spectrometer (AVIV Associates, Lakewood, N.J., USA) equipped with a thermoelectric cell holder and sample changer. The instrument was calibrated with (+)-10-[…]. Between one and three scans were collected for each sample, using 10 cm, 5 cm, 1 cm and 0.1 cm path length quartz Suprasil cells, respectively, for peptide concentrations of 10^−7 M to 10^−4 M. The bandwidth was fixed at 1.5 nm and the scan speed to 1s per wavelength step. The reported data are the mean of at least 2 or 3 independent measurements.
# After background substraction, spectra were converted to molar ellipticity (θ) per residue in deg. […] dmol^−1. The peptide concentration was determined by amino acid analysis and also by absorption spectrometry on a Perkin Elmer Lambda 17 UV/Visible spectrophotometer when the peptide contained a chromophore (tryptophane, dansyl, naphtylalanine).
# CD spectra were obtained with free, unbound peptide (5 μM in 5 mM phosphate buffer, pH 7.4); with peptide-SUV complexes (20:1 EPC:Chol., Ri=30 and Ri=50); with peptide-micelle complexes (1-myristoyl-2-hydroxy-sn-glycero-3-phosphatidyl choline, Ri=100); and with free, unbound peptide in the presence of 2,2,2-trifluoroethanol (TFE) (5 μM peptide, 90% vol TFE).
# The SUVs were obtained by dispersing the lipids (10 mM, 20:1 EPC:Chol., Avanti Polar Lipids, AL) in phosphate buffer (5 mM, pH 7.4) with bubbling N2 for 5 min., followed by sonication (1.5 hr.) in a bath sonicator. The homogeneity of the preparation was checked by FPLC.
# The micelles were obtained by dispersing the lipid (6 mM 1-myristoyl-2-hydroxy-sn-glycero-3-phosphatidyl choline, Avanti Polar Lipids, AL) in phosphate buffer (5 mM, pH 7.4) with bubbling N2 for 5 min., followed by vortexing.
# To obtain the peptide-SUV complexes, SUVs were added to the peptide (5 μM in 5 mM phosphate buffer, pH 7.4) at a phospholipid-peptide molar ratio (Ri) of 30 or 50.
# To obtain the peptide-micelle complexes, micelles were added to the peptide (5 μM in 5 mM phosphate buffer, pH 7.4) at a Ri of 100.
# All spectra were recorded at 37° C.
# The degree of helicity of the peptides in the various conditions was determined from the mean residue ellipticity at 222 nm (Chen et al., 1974, Biochemistry 13:3350-3359) or by comparing the CD spectra obtained to reference spectra available on databases (16 helical reference spectra from Provencher & Glockner, 1981, Biochemistry 20:33-37; denatured protein reference spectra from Venyaminov et al., 1993, Anal. Biochem. 214:17-24) using the CONTIN curve-fitting algorithm version 2DP, CD-1 pack (August 1982) (Provencher, 1982, Comput. Phys. Commun. 27:213-227, 229-242). Acceptable fit was determined using the statistical analysis methodology provided by the CONTIN algorithm. The error of all methods was ±5% helicity.
# [2] = biological target: T1, LCAT (purified from human plasma) (Homo sapiens, UniProt P04180); assay: LCAT activation assay; assay type: biochemical
# T1 construct: from tissue; host or cells: human plasma
# T1 sequence (P04180 25-440): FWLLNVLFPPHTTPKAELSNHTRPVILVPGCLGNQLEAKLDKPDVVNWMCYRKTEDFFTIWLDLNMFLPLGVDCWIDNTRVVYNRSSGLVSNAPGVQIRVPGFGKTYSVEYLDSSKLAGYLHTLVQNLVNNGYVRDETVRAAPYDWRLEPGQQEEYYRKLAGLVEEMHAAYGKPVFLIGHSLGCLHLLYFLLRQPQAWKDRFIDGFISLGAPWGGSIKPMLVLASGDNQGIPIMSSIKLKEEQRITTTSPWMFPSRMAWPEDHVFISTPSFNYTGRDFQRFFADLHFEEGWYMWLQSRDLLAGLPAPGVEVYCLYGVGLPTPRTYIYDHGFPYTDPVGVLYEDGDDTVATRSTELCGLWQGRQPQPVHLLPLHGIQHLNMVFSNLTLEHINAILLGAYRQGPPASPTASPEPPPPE
# How it was run: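 Substrate SUVs of EPC or POPC with 14C-cholesterol (20:1 molar ratio), in 10 mM Tris, 0.14 M NaCl, 1 mM EDTA, pH 7.4, were preincubated with peptide or equal mass of plasma ApoA-I. Reaction started with human plasma LCAT; activation was measured as cholesterol-to-ester conversion relative to ApoA-I (100%).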
# [3] = percent helicity, peptide-micelle complexes, Ri=100, 37° C.
# [4] = LCAT activation as compared with native human ApoA-I (= 100%), equivalent masses
He (%) TFE ([1]; percent helicity) [%],He (%) free ([1]; percent helicity) [%],He (%) SUVs ([1]; percent helicity) [%],"He (%) mics [1, 3] [%]","ACTIVITY (%) LCAT [2, 4] [%]",Structure (SMILES),He (%) mics [1] [%],ACTIVITY (%) LCAT [2] [%]
90,49,,98,34,"CC(C)C[C@H](NC(=O)[C@H](C)NC(=O)[C@H](CCC(=O)O)NC(=O)[C@H](CC(C)C)NC(=O)C(C)(C)NC(=O)[C@H](CCC(=O)O)NC(=O)[C@H](CC(N)=O)NC(=O)[C@H](CC(C)C)NC(=O)[C@H](CC(C)C)NC(=O)[C@H](CCC(=O)O)NC(=O)[C@H](CC(C)C)NC(=O)[C@H](Cc1ccccc1)NC(=O)[C@H](CC(C)C)NC(=O)[C@H](CC(=O)O)NC(=O)[C@H](CC(C)C)NC(=O)[C@@H](NC(=O)[C@@H]1CCCN1)C(C)C)C(=O)N[C@@H](CCCCN)C(=O)N[C@@H](CCC(N)=O)C(=O)N[C@@H](CCCCN)C(=O)N[C@@H](CC(C)C)C(=O)N[C@@H](CCCCN)C(=O)O [compound 31, PVLDLFLELLNEXLEALKQKLK] (H-PVLDLFLELLNE[Aib]LEALKQKLK-OH)",,
62,58,68,67,32,"CC(C)C[C@H](NC(=O)[C@H](C)NC(=O)[C@H](CCC(=O)O)NC(=O)[C@H](CC(C)C)NC(=O)[C@H](CC(C)C)NC(=O)[C@H](CCC(=O)O)NC(=O)[C@H](CC(N)=O)NC(=O)[C@H](CC(C)C)NC(=O)[C@H](CC(C)C)NC(=O)[C@H](CCC(=O)O)NC(=O)[C@H](CCCNC(=N)N)NC(=O)[C@H](Cc1ccccc1)NC(=O)[C@H](Cc1cccc2ccccc12)NC(=O)[C@H](CC(=O)O)NC(=O)[C@H](CC(C)C)NC(=O)[C@@H](NC(=O)[C@@H]1CCCN1)C(C)C)C(=O)N[C@@H](CCCCN)C(=O)N[C@@H](CCC(N)=O)C(=O)N[C@@H](CCCCN)C(=O)N[C@@H](CC(C)C)C(=O)N[C@@H](CCCCN)C(=O)O [compound 34, PVLDZFRELLNELLEALKQKLK] (H-PVLD[1Nal]FRELLNELLEALKQKLK-OH)",,
49,25,21,49,29,"CC(C)C[C@H](NC(=O)[C@H](CCCCN)NC(=O)[C@H](CCC(N)=O)NC(=O)[C@H](CCCCN)NC(=O)[C@H](Cc1c[nH]c2ccccc12)NC(=O)[C@H](C)NC(=O)[C@H](CCC(=O)O)NC(=O)[C@H](CC(C)C)NC(=O)C(C)(C)NC(=O)[C@H](CCC(=O)O)NC(=O)[C@H](CC(N)=O)NC(=O)[C@H](CC(C)C)NC(=O)[C@H](CC(C)C)NC(=O)[C@H](CCC(=O)O)NC(=O)[C@H](CCCNC(=N)N)NC(=O)[C@H](Cc1ccccc1)NC(=O)[C@H](CC(C)C)NC(=O)[C@H](CC(=O)O)NC(=O)[C@H](CC(C)C)NC(=O)[C@@H](NC(=O)[C@@H]1CCCN1)C(C)C)C(=O)N[C@@H](CCCCN)C(=O)O [compound 38, PVLDLFRELLNEXLEAWKQKLK] (H-PVLDLFRELLNE[Aib]LEAWKQKLK-OH)",,

Structure (SMILES),He (%) TFE ([1]; percent helicity) [%],He (%) free ([1]; percent helicity) [%],He (%) SUVs ([1]; percent helicity) [%],"He (%) mics [1, 3] [%]","ACTIVITY (%) LCAT [2, 4] [%]",He (%) mics [1] [%],ACTIVITY (%) LCAT [2] [%]
CC(C)C[C@H](NC(=O)[C@H](C)NC(=O)[C@H](CCC(=O)O)NC(=O)[C@H](CC(C)C)NC(=O)[C@H](CC(C)C)NC(=O)[C@H](CCC(=O)O)NC(=O)[C@H](CC(N)=O)NC(=O)[C@H](CC(C)C)NC(=O)[C@H](CC(C)C)NC(=O)[C@H](CCC(=O)O)NC(=O)[C@H](CCCNC(=N)N)NC(=O)[C@H](Cc1ccccc1)NC(=O)[C@H](CC(C)C)NC(=O)[C@H](CC(=O)O)NC(=O)[C@H](CC(C)C)NC(=O)[C@@H](NC(=O)[C@@H]1CCCN1S(=O)(=O)c1cccc2c(N(C)C)cccc12)C(C)C)C(=O)N[C@@H](CCCCN)C(=O)N[C@@H](CCC(N)=O)C(=O)N[C@@H](CCCCN)C(=O)N[C@@H](CC(C)C)C(=O)N[C@@H](CCCCN)C(=O)O [compound 30],90,85,98,,,90,38
